# Like-named read-outs stand apart in the source and are kept apart here.
# Target: T1, hT2R54 (Homo sapiens, UniProt P59534)
# T1 construct: expressed in transfected cells; it overexpresses a promiscuous G protein
# T1 sequence (P59534 1-338): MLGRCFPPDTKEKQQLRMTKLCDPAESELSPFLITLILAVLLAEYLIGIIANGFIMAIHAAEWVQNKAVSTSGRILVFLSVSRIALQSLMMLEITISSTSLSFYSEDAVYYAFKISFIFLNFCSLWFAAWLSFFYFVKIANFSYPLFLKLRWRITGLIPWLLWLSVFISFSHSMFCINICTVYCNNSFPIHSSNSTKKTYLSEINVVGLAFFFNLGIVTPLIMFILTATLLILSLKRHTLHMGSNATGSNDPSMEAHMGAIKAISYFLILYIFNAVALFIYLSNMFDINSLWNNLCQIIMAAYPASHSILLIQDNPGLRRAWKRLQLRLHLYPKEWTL
# Assay: Cell-based assay for measuring hT2R54 inhibition (FLIPR calcium, Fluo4AM, acetaminophen as bitter agonist)
# Conditions: for IC50: read-out: hT2R54 IC50
# Procedure: Cells stably expressing hT2R54 and a promiscuous G protein were seeded in 384 well plates 24 hours prior to the experiment. Cells were loaded with the calcium indicator Fluo4AM, washed and loaded in a FLIPR instrument with a compound plate containing increasing doses of acetaminophen in quadruplicates and prepared at 2× of final concentration. Baseline was recorded for 10 seconds, then 25 μl of […] was added onto 25 μl of cells and resulting changes in fluorescence were monitored over an additional 3 minutes. The host cell line overexpressing the G protein but not hT2R54 was treated as described above.
# The ability of a test compound that blocks bitter taste elicited through hT2R54 was measured in this assay, as follows. Cells stably expressing hT2R54 and a promiscuous G protein were seeded in 384 well plates 24 hours prior to the experiment. Cells were loaded with the calcium indicator Fluo4AM, washed and loaded in a FLIPR instrument with a compound plate containing increasing doses of acetaminophen in buffer and increasing doses of acetaminophen with depicted fixed concentrations of Cmpd 109 (Table 4). Base line was recorded for 10 seconds, then 25 μl of compound and compound mixtures were added onto 25 μl of cells and resulting changes in fluorescence were monitored over an additional 3 minutes. The concentration of test compound that blocks half of the response when the bitter compound alone is present is presented as the EC50 or IC50 value.
# In the examples above, the EC50 of compounds for blocking bitter taste elicited through T2R54 was measured in the same manner.
# [1] = other T2R54 bitter blockers (table after b418)
# [2] = Table 2, cells stably expressing hT2R54 and a promiscuous G protein
Structure (SMILES),IC50 [2] [nM],further results
"Cc1cc(N2CCC(C(N)=O)CC2)nc(-c2ccccc2)n1 [A, 1-(6-Methyl-2-phenylpyrimidin-4-yl)piperidine-4-carboxamide]",,IC50 [1]: 2900 nM
COc1cc2ncnc(NCc3cccc4c3OCO4)c2cc1OC [B],,IC50 [1]: 1800 nM
"CC(=O)Nc1ccc(O)cc1 [acetaminophen, reference compound]",,"response of hT2R54-expressing cells to bitter tastant (FIG. 1, cells expressing hT2R54, not control host cells): measurable change in intracellular calcium"
"COc1ccc(F)cc1C(=O)N1CCN(CC(=O)Nc2cc3c(cc2C(C)=O)OCO3)CC1 [compound 2, N-(6-Acetylbenzo[d][1,3]dioxol-5-yl)-2-(4-(5-fluoro-2-methoxybenzoyl)piperazin-1-yl)acetamide]",27,
"CC(=O)c1cc2c(cc1NC(=O)CN1CCN(C(=O)NC(C)C)CC1)OCO2 [compound 4, 4-(2-((6-Acetylbenzo[d][1,3]dioxol-5-yl)amino)-2-oxoethyl)-N-isopropylpiperazine-1-carboxamide]",34,
"CC(=O)c1cc2c(cc1NC(=O)CN1CCN(S(=O)(=O)C(C)C)CC1)OCO2 [compound 5, N-(6-acetylbenzo[d][1,3]dioxol-5-yl)-2-(4-(isopropylsulfonyl)piperazin-1-yl)acetamide]",130,
"COc1cc2c(cc1NC(=O)CN1CCN(C(=O)CC(C)C)CC1)OCO2 [compound 6, N-(6-Methoxybenzo[d][1,3]dioxol-5-yl)-2-(4-(3-methylbutanoyl)piperazin-1-yl)acetamide]",490,
CCC(=O)N1CCN(CC(=O)Nc2cc3c(cc2C(C)=O)OCO3)CC1 [compound 8],50,
CCCC(=O)N1CCN(CC(=O)Nc2cc3c(cc2C(C)=O)OCO3)CC1 [compound 9],29,
CCCCC(=O)N1CCN(CC(=O)Nc2cc3c(cc2C(C)=O)OCO3)CC1 [compound 10],9,
CC(=O)c1cc2c(cc1NC(=O)CN1CCN(C(=O)C3CC3)CC1)OCO2 [compound 12],40,
CC(=O)c1cc2c(cc1NC(=O)CN1CCN(C(=O)C(C)(C)C)CC1)OCO2 [compound 13],23,
CC(=O)c1cc2c(cc1NC(=O)CN1CCN(C(=O)CC(C)(C)C)CC1)OCO2 [compound 14],80,
CC(=O)c1cc2c(cc1NC(=O)CN1CCN(C(=O)C3CCCCC3)CC1)OCO2 [compound 17],150,
CC(=O)c1cc2c(cc1NC(=O)CN1CCN(C(=O)CO)CC1)OCO2 [compound 18],216,
CC(=O)c1cc2c(cc1NC(=O)CN1CCN(C(=O)COC(C)C)CC1)OCO2 [compound 20],170,
CC(=O)c1cc2c(cc1NC(=O)CN1CCN(C(=O)C3CCCCO3)CC1)OCO2 (stereo not drawn) [compound 23],18,
CC(=O)c1cc2c(cc1NC(=O)CN1CCN(C(=O)C3CCOCC3)CC1)OCO2 [compound 24],336,

Structure (SMILES),IC50 [2] [nM],further results
CC(=O)c1cc2c(cc1NC(=O)CN1CCN(C(=O)Oc3ccccc3)CC1)OCO2 [compound 31],262,
CC(=O)c1cc2c(cc1NC(=O)CN1CCN(C(=O)NCc3ccccc3)CC1)OCO2 [compound 32],21,
CC(=O)c1cc2c(cc1NC(=O)CN1CCN(C(=O)c3ccccc3)CC1)OCO2 [compound 34],20,
CC(=O)c1cc2c(cc1NC(=O)CN1CCN(C(=O)c3ccco3)CC1)OCO2 [compound 36],4,
CC(=O)c1cc2c(cc1NC(=O)CN1CCN(C(=O)c3ccsc3)CC1)OCO2 [compound 37],23,
CC(=O)c1cc2c(cc1NC(=O)CN1CCN(C(=O)c3ccncc3)CC1)OCO2 [compound 39],70,
CC(=O)c1cc2c(cc1NC(=O)CN1CCN(C(=O)c3ccccc3O)CC1)OCO2 [compound 40],80,
COc1ccccc1C(=O)N1CCN(CC(=O)Nc2cc3c(cc2C(C)=O)OCO3)CC1 [compound 41],40,
CC(=O)c1cc2c(cc1NC(=O)CN1CCN(C(=O)c3cccnc3)CC1)OCO2 [compound 42],60,
CC(=O)c1cc2c(cc1NC(=O)CN1CCN(C(=O)c3ccc(O)cc3)CC1)OCO2 [compound 43],80,
CC(=O)c1cc2c(cc1NC(=O)CN1CCN(C(=O)c3ccccc3F)CC1)OCO2 [compound 44],50,
CC(=O)c1cc2c(cc1NC(=O)CN1CCN(C(=O)c3cccc(F)c3)CC1)OCO2 [compound 46],26,
COc1cccc(C(=O)N2CCN(CC(=O)Nc3cc4c(cc3C(C)=O)OCO4)CC2)c1 [compound 48],13,
CC(=O)c1cc2c(cc1NC(=O)CN1CCN(C(=O)c3cccc(CO)c3)CC1)OCO2 [compound 50],402,
CC(=O)c1cc2c(cc1NC(=O)CN1CCN(C(=O)Cc3ccccc3)CC1)OCO2 [compound 52],51,
CC(=O)c1cc2c(cc1NC(=O)CN1CCN(C(=O)Cc3ccccc3O)CC1)OCO2 [compound 53],18,
COc1ccccc1CC(=O)N1CCN(CC(=O)Nc2cc3c(cc2C(C)=O)OCO3)CC1 [compound 54],24,

# Further lines, with some results ahead:
IC50 [2] [nM],Structure (SMILES),further results
15,"CCCOC(=O)N1CCN(CC(=O)Nc2cc3c(cc2C(C)=O)OCO3)CC1 [compound 3, Propyl 4-(2-((6-Acetylbenzo[d][1,3]dioxol-5-yl)amino)-2-oxoethyl)piperazine-1-carboxylate]",
90,CC(=O)c1cc2c(cc1NC(=O)CN1CCN(C(C)=O)CC1)OCO2 [compound 7],
40,CC(=O)c1cc2c(cc1NC(=O)CN1CCN(C(=O)C(C)C)CC1)OCO2 [compound 11],
24,CC(=O)c1cc2c(cc1NC(=O)CN1CCN(C(=O)CC3CC3)CC1)OCO2 [compound 15],
29,CC(=O)c1cc2c(cc1NC(=O)CN1CCN(C(=O)C3CCCC3)CC1)OCO2 [compound 16],
60,COCC(=O)N1CCN(CC(=O)Nc2cc3c(cc2C(C)=O)OCO3)CC1 [compound 19],
179,COCCOCC(=O)N1CCN(CC(=O)Nc2cc3c(cc2C(C)=O)OCO3)CC1 [compound 21],
4360,CC(=O)c1cc2c(cc1NC(=O)CN1CCN(C(=O)C3CCN(C)CC3)CC1)OCO2 [compound 25],
176,CC(=O)c1cc2c(cc1NC(=O)CN1CCN(C(=O)CN3CCCC3)CC1)OCO2 [compound 27],
107,CC(=O)c1cc2c(cc1NC(=O)CN1CCN(C(=O)CN3CCOCC3)CC1)OCO2 [compound 28],
311,CCOC(=O)N1CCN(CC(=O)Nc2cc3c(cc2C(C)=O)OCO3)CC1 [compound 29],
40,CC(=O)c1cc2c(cc1NC(=O)CN1CCN(C(=O)OC(C)C)CC1)OCO2 [compound 30],
50,CC(=O)c1cc2c(cc1NC(=O)CN1CCN(C(=O)Nc3ccccc3)CC1)OCO2 [compound 33],
40,CC(=O)c1cc2c(cc1NC(=O)CN1CCN(C(=O)c3cccs3)CC1)OCO2 [compound 35],
50,CC(=O)c1cc2c(cc1NC(=O)CN1CCN(C(=O)c3cccc(O)c3)CC1)OCO2 [compound 38],
28,CC(=O)c1cc2c(cc1NC(=O)CN1CCN(C(=O)c3ccc(F)cc3)CC1)OCO2 [compound 45],
21,COc1ccc(C(=O)N2CCN(CC(=O)Nc3cc4c(cc3C(C)=O)OCO4)CC2)cc1 [compound 47],
100,CC(=O)c1cc2c(cc1NC(=O)CN1CCN(C(=O)c3ccccn3)CC1)OCO2 [compound 49],
234,COCc1cccc(C(=O)N2CCN(CC(=O)Nc3cc4c(cc3C(C)=O)OCO4)CC2)c1 [compound 51],
